Assay [1] deals with T1, IP3K-KD (human IP3K-KD A isoform, residues 187–461) (Homo sapiens, UniProt P23677).
T1 construct: human IP3K-KD A isoform (residues 187–461); GST (cleaved yes); made in house; host or cells: Escherichia coli BL21 star (DE3)
The experiment in a line: Ligand displacement assay: fluorescence polarization (anisotropy) of 2-FITC-InsP3/IP3K-KD complex. The settings on record: for IC50: 100 nM IP3K-KD, 2 nM 2-FITC-InsP3, 20 mM HEPES pH 7.5, 1 mM EDTA, 50 mM KCl, n=4 replicates, 5-s and 5-p racemic, read-out: IC50, displacement of 2-FITC-InsP3 from IP3K-KD; for Kd: estimated Ki (Kd) from IC50 with [2-FITC-InsP3] 2 nM and its Kd 68 nM, read-out: Kd inferred from IC50 (Cheng and Prusoff). The class given is binding. As for the experimental part:
(§1) A construct encoding human IP3K-KD A isoform (residues 187–461) into pOPTG vector was used[16]. The protein was expressed in Escherichia coli BL21 star (DE3) strain. Cells were grown at 37 °C to OD600 = 1.0 then induced with 0.4 mM IPTG for 18 h at 16 °C. Protein purification was performed by adapting the reported protocol. Cells were resuspended in buffer A (10 mM Tris pH 7.5 [4 °C], 200 mM NaCl and 2 mM DTT) and disrupted by sonication. Clarified cell lysate was diluted 1/4 in buffer B (10 mM Tris pH 7.5 [4 °C] and 2 mM DTT) and loaded into a 5 mL HiTrap heparin column (GE Healthcare) washed by buffer C (20 mM Tris pH 7.5, 50 mM NaCl and 2 mM DTT), and eluted with a 0.05 M–1 M salt gradient. The eluted sample was subsequently loaded on to a 5 mL glutathione–Sepharose HP column (GE Healthcare), washed with buffer A and eluted with reduced glutathione 10 mM (Sigma-Aldrich) in buffer A. The GST tag was cleaved with home-made TEV (tobacco etch virus) protease overnight at 4 °C, (1:40 TEV/protein mass ratio). After glutathione removal with a PD10 column, the cleaved protein was further purified using a 5 mL glutathione–Sepharose HP column (GE Healthcare) followed by gel filtration on a 16/600 Superdex200 (GE Healthcare) column equilibrated in buffer D (20 mM Tris pH 7.5 [4 °C], 0.05 M (NH4)2SO4 and 2 mM DTT). Protein samples were analyzed by SDS/PAGE, concentrated around 18 mg/mL and stored at −80 °C until use.
Binding of a competing/displacing ligand to protein is observed as a decrease in the polarization (anisotropy) of 2-FITC-InsP3. A comparison of the strength of binding of enzyme substrates, analogues and products to IP3K-KD was obtained by measurement of fluorescence polarization (here anisotropy) of 2-FITC-InsP3/IP3K-KD complex. Experimentally, 100 nM IP3K-KD was mixed with 2 nM 2-FITC-InsP3[37] in 20 mM HEPES pH 7.5, 1 mM EDTA and 50 mM KCl with the addition of displacing compounds over a range of 1 nM–50 μM. Assays were analyzed using a ClarioSTAR plate reader and IC50 values determined from fit of the data to a 4-parameter logistic as described. From IC50 values, we have estimated the Ki (Kd) values for the displacing ligands using the equation of Cheng and Prusoff:[69]1 Ki=IC50/1+L/Kd where [L] is the ligand (2-FITC-InsP3) concentration and Kd the dissociation constant for its interaction with IP3K-KD. […] Consequently, the Ki values for the displacing ligands differ trivially from their IC50 values.

The target of assay [2] is T1, IP3K-KD (human IP3K-KD A isoform, residues 187–461). The experiment in a line: Fluorescence thermal shift analysis (Tycho NT.6, inflection temperature Ti). The settings on record: for Ti, transition 1 (mean inflection temperature) / Ti, transition 2 (mean inflection temperature): 10 μM IP3K-KD, 100 μM chiral or 200 μM racemic ligand, AMP-PNP or ADP, 100 μM MgCl2; for Ti, transition 1 (mean inflection temperature) / Ti, transition 2 (mean inflection temperature) / ΔTi, transition 1 / ΔTi, transition 2: mean ± SD, n=3; for ΔTi, transition 1: Ti minus Ti of apo IP3K-KD (44.4); for ΔTi, transition 2: Ti minus Ti of apo IP3K-KD (53.8); for Transition 1 Ti, individual measurement / Transition 2 Ti, individual measurement: source data of Fig. 6b/6c, single replicates; for Transition 1 Dti (Ti-Ti Apo) / Transition 1 Ti Mean / Transition 2 DTi (Ti-Ti Apo) / Transition 2 Ti Mean: source data of Fig. 6c, N 3; for Stabilization of IP3K-KD by ligand (in words): thermal shift, Fig. 6c. The class given is binding. As for the experimental part:
as §1
Thermal protein denaturation was documented by recording intrinsic protein fluorescence at 330 and 350 nm wavelengths. The fluorescence recorded in each thermal run is plotted as 350/330 nm ratio and used to calculate the Inflection Temperature (Ti). Ti is the temperature at which a protein undergoes a transition in its folding state. This calculation is performed automatically by the Tycho NT.6 software. The protocol optimized for this procedure, involves a heating time of 2 min, a sample volume of 10 μl placed in a very thin capillary, and a temperature ramp from 35 °C (308 K) to 95 °C (368 K). For the experiment, IP3K-KD was diluted with buffer D to achieve a concentration of 0.31 mg/mL (10 μM). It was then mixed with 100 μM of chiral ligands or 200 μM of racemic ligands (all synthesized as stated in this work except InsP3 and InsP4 that were commercial from Avanti Polar Lipids), AMP-PNP (substrate analogues) or ADP (product-like ligands) and 100 μM MgCl2. Microsoft Excel was used to calculate and plot ΔTi values and standard deviations.

For a further assay, the target named is T2, IP3K-KD (Homo sapiens, UniProt P23677).
T2 construct: human IP3K-KD A isoform (residues 187–461); GST (cleaved yes); made in house; host or cells: Escherichia coli BL21 star (DE3)
T2 sequence (P23677 187-461): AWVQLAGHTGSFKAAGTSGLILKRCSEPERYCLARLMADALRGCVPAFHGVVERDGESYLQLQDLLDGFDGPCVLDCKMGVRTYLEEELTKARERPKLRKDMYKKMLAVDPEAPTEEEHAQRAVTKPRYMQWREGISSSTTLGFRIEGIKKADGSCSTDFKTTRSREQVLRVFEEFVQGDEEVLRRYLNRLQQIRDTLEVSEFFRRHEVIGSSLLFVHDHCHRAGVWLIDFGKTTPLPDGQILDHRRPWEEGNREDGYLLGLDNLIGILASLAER
The experiment in a line: HPLC analysis of IP3K-KD reaction mixtures (substrate test). The class given is biochemical. The settings on record: 150 nM IP3K-KD, 500 μM analogue, 1 mM ATP, 2 h at 30 °C, Fig. 7a. As for the experimental part: as §1

Assay [3] deals with permeabilized rabbit platelets. More on the design: method as in doi:10.1016/0960-894X(96)00399-X. The settings on record: cited from earlier work.

Each structure is given as a SMILES string. “And” between values parts separate entries of the source, which are not always exact repeats. Equal entries are not always repeated. “Also recorded” adds a separate entry of the source.

T1 sequence (P23677 187-461): as above

By IC50 is commonly meant the concentration that gives 50% inhibition. Usually Kd stands for the free concentration of one partner at which half of the binding sites on the other are occupied at equilibrium, for simple one-to-one binding. `O=P(O)(O)O[C@@H]1[C@@H](O)[C@H](CO)[C@@H](OP(=O)(O)O)[C@H](OP(=O)(O)O)[C@H]1O` (racemic) [5-s, DL−6-deoxy-6-hydroxymethyl-scyllo-inositol 1,2,4-trisphosphate]: in assay [1], the IC50 came out at 972 nM and the Kd was 944 nM. Further, the “Quality as IP3K ligand (in words)” value in assay [1] (Fig. 6) is recorded as “good IP3K ligand”. In assay [2], the “Ti, transition 1 (mean inflection temperature)” value is given as 51.3 ± 0.2 ºC; the “Ti, transition 2 (mean inflection temperature)” value was 57.0 ± 0.1 ºC; the “ΔTi, transition 1” value was 6.9 ± 0.4 ºC; the “ΔTi, transition 2” value is reported as 3.2 ± 0.2 ºC. Besides, in assay [2], the “Transition 1 Ti, individual measurement” value is 51.5 and 51.1 and 51.3; the “Transition 2 Ti, individual measurement” value is 56.9 (2×) and 57.1; the “Transition 1 Dti (Ti-Ti Apo)” value was 6.9; the “Transition 1 Ti Mean” value worked out at 51.3. In addition, in assay [2], the “Transition 2 DTi (Ti-Ti Apo)” value was 3.2 and the “Transition 2 Ti Mean” value is listed as 57.0. The “Ability to act as IP3K substrate (in words)” value (“Ability to act” below) at IP3K-KD was “are also substrates”. Further, the “45Ca2+ release relative to InsP3” value in assay [3] was “equipotent with InsP3 itself”.

On to `O=P(O)(O)O[C@@H]1[C@@H](O)[C@H](O)[C@@H](OP(=O)(O)O)[C@H](OP(=O)(O)O)[C@H]1O` [1-s, L-scyllo-inositol 1,2,4-trisphosphate], for which, in assay [1], the IC50 is 36 nM and the Kd was 35 nM. Further, in assay [2], the “Ti, transition 1 (mean inflection temperature)” value was 55.6 ± 0.1 ºC; the “Ti, transition 2 (mean inflection temperature)” value was 60.7 ± 0.2 ºC; the “ΔTi, transition 1” value is on record as 11.2 ± 0.3 ºC; the “ΔTi, transition 2” value is on record as 6.9 ± 0.2 ºC. In assay [2], the “Transition 1 Ti, individual measurement” value was 55.7 and 55.6 (2×); the “Transition 2 Ti, individual measurement” value was 60.8 and 60.5 and 60.7; the “Transition 1 Dti (Ti-Ti Apo)” value is recorded as 11.2; the “Transition 1 Ti Mean” value amounted to 55.6. Moreover, in assay [2], the “Transition 2 DTi (Ti-Ti Apo)” value is 6.9 and the “Transition 2 Ti Mean” value was found to be 60.7. The “Ability to act” value on IP3K-KD is on record as “is a good IP3K substrate”.

Regarding `O=P(O)(O)O[C@@H]1O[C@H](CO)[C@@H](OP(=O)(O)O)[C@H](OP(=O)(O)O)[C@H]1O` [6a–s, β-D-glucopyranosyl 1,3,4-trisphosphate], in assay [1], the IC50 was 205 nM and the Kd is 199 nM. Moreover, in assay [2], the “Ti, transition 1 (mean inflection temperature)” value is on record as 51.5 ± 0.2 ºC; the “Ti, transition 2 (mean inflection temperature)” value is reported as 57.3 ± 0.1 ºC; the “ΔTi, transition 1” value is 7.1 ± 0.3 ºC; the “ΔTi, transition 2” value is on record as 3.5 ± 0.2 ºC. In assay [2], the “Transition 1 Ti, individual measurement” value was 51.4 and 51.5 and 51.7; the “Transition 2 Ti, individual measurement” value was 57.4 (2×) and 57.2; the “Transition 1 Dti (Ti-Ti Apo)” value was 7.1; the “Transition 1 Ti Mean” value turned out to be 51.5. Also, in assay [2], the “Transition 2 DTi (Ti-Ti Apo)” value was 3.5 and the “Transition 2 Ti Mean” value worked out at 57.3. Further, the “Ability to act” value on IP3K-KD is on record as “are also substrates”.

In the case of `O=P(O)(O)O[C@H]1O[C@H](CO)[C@@H](OP(=O)(O)O)[C@H](OP(=O)(O)O)[C@H]1O` [6b–s, α-D-glucopyranosyl 1,3,4-trisphosphate], in assay [1], the IC50 is 8980 nM and the Kd was 8720 nM. Also, in assay [2], the “Ti, transition 1 (mean inflection temperature)” value is 45.7 ± 0.5 ºC; the “Ti, transition 2 (mean inflection temperature)” value is 54.6 ± 0.0 ºC; the “ΔTi, transition 1” value is recorded as 1.3 ± 0.6 ºC; the “ΔTi, transition 2” value is on record as 0.8 ± 0.2 ºC. In assay [2], the “Transition 1 Ti, individual measurement” value was 45.5 and 46.3 and 45.3; the “Transition 2 Ti, individual measurement” value turned out to be 54.6; the “Transition 1 Dti (Ti-Ti Apo)” value is recorded as 1.3; the “Transition 1 Ti Mean” value came out at 45.7. Also, in assay [2], the “Transition 2 DTi (Ti-Ti Apo)” value is on record as 0.8, the “Transition 2 Ti Mean” value amounted to 54.6 and the “Stabilization of IP3K-KD by ligand (in words)” value is given as “stabilize IP3K-KD much less than InsP3”. For the same molecule, the “Ability to act” value on IP3K-KD is reported as “weaker substrates”.

As for `O=P(O)(O)OC[C@@H]1O[C@H](CO)[C@@H](OP(=O)(O)O)[C@H](OP(=O)(O)O)[C@H]1O` [7a–s, β-D-glucopyranosylmethanol 3,4,1’-trisphosphate], in assay [1], the IC50 was determined as 656 nM and the Kd is 637 nM. In assay [2], the “Ti, transition 1 (mean inflection temperature)” value is 49.7 ± 0.4 ºC; the “Ti, transition 2 (mean inflection temperature)” value is 56.1 ± 0.3 ºC; the “ΔTi, transition 1” value is reported as 5.3 ± 0.5 ºC; the “ΔTi, transition 2” value was 2.3 ± 0.3 ºC. In assay [2], the “Transition 1 Ti, individual measurement” value is 50.2 and 49.5 and 49.4; the “Transition 2 Ti, individual measurement” value is 55.9 and 56.1 and 56.4; the “Transition 1 Dti (Ti-Ti Apo)” value was determined as 5.3; the “Transition 1 Ti Mean” value was 49.7. For the same molecule, in assay [2], the “Transition 2 DTi (Ti-Ti Apo)” value was found to be 2.3 and the “Transition 2 Ti Mean” value is given as 56.1. In addition, the “Ability to act” value on IP3K-KD is reported as “are also substrates”.

Take `O=P(O)(O)OC[C@H]1O[C@H](CO)[C@@H](OP(=O)(O)O)[C@H](OP(=O)(O)O)[C@H]1O` [7b–s, α-D-glucopyranosylmethanol 3,4,1’- trisphosphate]: in assay [1], the IC50 turned out to be 6990 nM and the Kd is 6790 nM. In assay [2], the “Ti, transition 1 (mean inflection temperature)” value is 45.6 ± 0.7 ºC; the “Ti, transition 2 (mean inflection temperature)” value was 54.4 ± 0.3 ºC; the “ΔTi, transition 1” value is reported as 1.2 ± 0.7 ºC; the “ΔTi, transition 2” value was 0.6 ± 0.3 ºC. Also, in assay [2], the “Transition 1 Ti, individual measurement” value was 45.4 and 45.1 and 46.4; the “Transition 2 Ti, individual measurement” value was 54.1 and 54.6 and 54.4; the “Transition 1 Dti (Ti-Ti Apo)” value came out at 1.2; the “Transition 1 Ti Mean” value worked out at 45.6. In addition, in assay [2], the “Transition 2 DTi (Ti-Ti Apo)” value stood at 0.567, the “Transition 2 Ti Mean” value is recorded as 54.4 and the “Stabilization of IP3K-KD by ligand (in words)” value was “stabilize IP3K-KD much less than InsP3”. Further, the “Binding to IP3K (in words)” value in assay [2] (Fig. 6b,c) is given as “do not, or barely, bind IP3K”. Further, the “Ability to act” value on IP3K-KD was “weaker substrates; also recorded: poor substrate activity for IP3K”.
